Patent US7700786B2, “Pyrazole derivative, intermediate therefor, processes for producing these, and herbicide containing these as active ingredient” (Sagami Chemical Research Center, priority 2001, dated 2010)

What was measured:
Cyperus difformis = assay: Herbicidal efficacy test by pre-emergence treatment under submergence condition; type: in vivo; conditions: 15th day after treatment, ratings of 1 to 5; also: key: 1 shows no influence; 5 shows complete die
Source text: (§3) A 1/10,000-are pot was filled with paddy field soil, and, after plowing, seeds of Echinochloa oryzicola, Cyperus difformis, Monochoria vaginalis, Scirpus juncoides, Eleocharis acicularis and other annual broadleaf weeds such as Lindernia procumbens, Rotala indica and Elatine triandra were sown. Rice (oryza sativa) seedlings (cultiver “Koshihikari”) at a 2.5-leaf stage were transplanted and kept under a submergence condition. After one day, the wettable powder or emulsifiable concentrate of the compound of the present invention, prepared according to Preparation Example, was diluted and dropped on a water surface at a predetermined dose.

[1] = test system: Rice (oryza sativa) seedlings (cultiver Koshihikari); conditions: in vivo
Source text: as §3

Amaranthus viridis [2] = assay: Herbicidal efficacy test by soil treatment before germination under upland field condition; type: in vivo; conditions: dose 1 kg/ha; 21st day after treatment; ratings of 1 to 5; also: key: 1 shows no influence; 5 shows complete die
Source text: (§1) A vat having an area of 5×10 cm^2 and a depth of 5 cm was filled with upland field soil, and seeds of Chenopodium album, Echinochloa crus-galli, Amaranthus viridis, Digitaria ciliaris and sweet corn (Zea mays) were sown thereon and covered with soil by a depth of 0.5 cm.

Echinochloa crus-galli [3] = assay: as above; type: in vivo; conditions: dose 1 kg/ha; 21st day after treatment; ratings of 1 to 5
Source text: as §1

Digitaria ciliaris = assay: as above; type: in vivo; conditions: dose 1 kg/ha; 21st day after treatment; ratings of 1 to 5
Source text: as §1

Chenopodium album [4] = assay: as above; type: in vivo; conditions: dose 1 kg/ha; 21st day after treatment; ratings of 1 to 5
Source text: as §1

Monochoria vaginalis = assay: Herbicidal efficacy test by pre-emergence treatment under submergence condition; type: in vivo; conditions: 15th day after treatment, ratings of 1 to 5; also: key: 1 shows no influence; 5 shows complete die
Source text: as §3

[5] = test system: annual broadleaf weeds such as Lindernia procumbens, Rotala indica and Elatine triandra; assay: as above; type: in vivo; conditions: 15th day after treatment, ratings of 1 to 5
Source text: as §3

Scirpus juncoides = assay: as above; type: in vivo; conditions: 15th day after treatment, ratings of 1 to 5
Source text: as §3

Eleocharis acicularis = assay: as above; type: in vivo; conditions: 15th day after treatment, ratings of 1 to 5; also: key: 1 shows no influence; 5 shows complete die
Source text: as §3

Abutilon theophrasti = assay: Herbicidal efficacy test by foliar treatment after germination under upland field condition; type: in vivo; conditions: Dc: Digitaria ciliaris (table footnote; method names Abutilon theophrasti), dose 1 kg/ha, rated 1 to 5 on the 14th day after treatment
Echinochloa oryzicola = assay: Herbicidal efficacy test by pre-emergence treatment under submergence condition; type: in vivo; conditions: 15th day after treatment, ratings of 1 to 5
Source text: as §3

sweet corn (Zea mays) = assay: Injury to corn, soil treatment before germination under upland field condition; type: in vivo; conditions: dose 1 kg/ha; 21st day after treatment; ratings of 1 to 5
Source text: as §1

Amaranthus viridis [6] = assay: Herbicidal efficacy test by foliar treatment after germination under upland field condition; type: in vivo; conditions: dose 1 kg/ha, rated 1 to 5 on the 14th day after treatment; also: key: 1 shows no influence; 5 shows complete die
Source text: (§2) A vat having an area of 5×10 cm^2 and a depth of 5 cm was filled with upland field soil, and seeds of Chenopodium album, Echinochloa crus-galli, Amaranthus viridis and Abutilon theophrasti were sown thereon and covered with soil by a depth of 0.5 cm. Water was sprayed as required to grow them for 14 days.

Echinochloa crus-galli [7] = assay: as above; type: in vivo; conditions: dose 1 kg/ha, rated 1 to 5 on the 14th day after treatment
Source text: as §2

Chenopodium album [8] = assay: as above; type: in vivo; conditions: dose 1 kg/ha, rated 1 to 5 on the 14th day after treatment
Source text: as §2
For Herbicidal activity Ca in this document: key: 1 shows no influence; 5 shows complete die.

| Structure (SMILES) | Herbicidal efficacy Cd (Cyperus difformis; dose 0.5 kg/ha) | Herbicidal efficacy Cd (Cyperus difformis; dose 1 kg/ha) | Injury Os [1] | Herbicidal activity Av (Amaranthus viridis [2]) | Herbicidal activity Ec (Echinochloa crus-galli [3]) | Herbicidal activity Dc (Digitaria ciliaris) | Herbicidal activity Ca (Chenopodium album [4]) | Herbicidal efficacy Mv (Monochoria vaginalis; dose 0.5 kg/ha) | Herbicidal efficacy Mv (Monochoria vaginalis; dose 1 kg/ha) | Herbicidal efficacy Blw ([5]; dose 0.5 kg/ha) | Herbicidal efficacy Blw ([5]; dose 1 kg/ha) | Herbicidal efficacy Sj (Scirpus juncoides; dose 0.5 kg/ha) | Herbicidal efficacy Sj (Scirpus juncoides; dose 1 kg/ha) | Herbicidal efficacy Ea (Eleocharis acicularis; dose 0.5 kg/ha) | Herbicidal efficacy Ea (Eleocharis acicularis; dose 1 kg/ha) | Herbicidal activity Dc (Abutilon theophrasti) | Herbicidal efficacy Eo (Echinochloa oryzicola; dose 0.5 kg/ha) | Herbicidal efficacy Eo (Echinochloa oryzicola; dose 1 kg/ha) | Injury Zm (sweet corn (Zea mays)) | Herbicidal activity Av (Amaranthus viridis [6]) | also measured |
| --- | --- | --- | --- | --- | --- | --- | --- | --- | --- | --- | --- | --- | --- | --- | --- | --- | --- | --- | --- | --- | --- |
| Cc1cc(Oc2c(Cl)cc(C(F)(F)F)cc2Cl)nn1C(N)=O [Compound 3-3] | 5 | 5 | 1.5 | 5 | 3.5 | 4.5 | 5 | 5 | 5 | 5 | 5 | 5 | 5 | 5 | 5 | 5 | 5 | 5 | 1.5 | 5 | Herbicidal activity Ec (Echinochloa crus-galli [7]): 4.5; Herbicidal activity Ca (Chenopodium album [8]): 5 |
| CCCNC(=O)n1nc(Oc2c(Cl)cc(C(F)(F)F)cc2Cl)cc1C [Compound 3-74] | 5 | 5 | 1.8 | 5 | 4.9 | 5 | 5 | 5 | 5 | 5 | 5 | 5 | 5 | 5 | 5 | 5 | 5 | 5 | 1 | 5 | Herbicidal activity Ec (Echinochloa crus-galli [7]): 4.9; Herbicidal activity Ca (Chenopodium album [8]): 5 |
| Cc1cc(Oc2c(Cl)cc(C(F)(F)F)cc2Cl)nn1C(=O)NCCBr [Compound 3-146] | 5 | 5 | 1 |  |  |  |  | 5 | 5 | 5 | 5 | 5 | 5 | 5 | 5 |  | 5 | 5 |  |  |  |
| COCNC(=S)n1nc(Oc2c(Cl)cc(C(F)(F)F)cc2Cl)cc1C [Compound 3-169] | 5 | 5 | 1 |  |  |  |  | 5 | 5 | 5 | 5 | 4 | 4.2 | 5 | 5 |  | 5 | 5 |  |  |  |
| Cc1cc(Oc2c(Cl)cc(C(F)(F)F)cc2Cl)nn1C(=O)NCC1CCCO1 (centres unmarked) [Compound 3-183] | 5 | 5 | 2 | 5 | 3 | 4 | 5 | 5 | 5 | 5 | 5 | 5 | 5 | 5 | 5 | 5 | 5 | 5 | 1 | 5 | Herbicidal activity Ec (Echinochloa crus-galli [7]): 5; Herbicidal activity Ca (Chenopodium album [8]): 5 |
